Reference: patent US11040963B2 (priority 2017, dated 2021)

What was measured:
[1] = tested on: H5N1 A/Vietnam/1203/04; experiment: microbe, parasite or virus in culture; type: cell-based, influenza A virus; details: 96 h, average of repeats; for EC50: Influenza A virus, H5N1, MDCK, read-out: Virus neutralization assay (VNA), pEC50 H5N1 A/Vietnam/1203/04, MDCK cells, 96 h, CPE by ATPlite (converted); for Virus neutralization assay (VNA), pEC50 H5N1 A/Vietnam/1203/04: MDCK cells, CPE by ATPlite
[2] = biological target: HA H1 A/California/07/09 (Influenza A virus (A/California/07/2009(H1N1)), UniProt C3W5X2); experiment: biochemical; details: Competition binding (AlphaLISA), pIC50 H1 A/California/07/09
[3] = tested on: H1N1 A/New Caledonia/20/99; experiment: microbe, parasite or virus in culture; type: cell-based, influenza A virus; details: for EC50: Influenza A virus, H1N1, MDCK, 96 h, read-out: Virus neutralization assay (VNA), pEC50 H1N1 A/New Caledonia/20/99 (converted)
[4] = tested on: H1N1 A/PR/8/34-MA; experiment: microbe, parasite or virus in culture; type: cell-based, influenza A virus; details: Influenza A virus, MDCK, 96 h, read-out: Virus neutralization assay (VNA), pEC50 H1N1 A/PR/8/34-MA (converted)
[5] = biological target: HA H5 A/Vietnam/1203/04 (Influenza A virus (A/Vietnam/1203/2004(H5N1)), UniProt Q5EP31); experiment: biochemical; details: Competition binding (AlphaLISA), pIC50 H5 A/Vietnam/1203/04
[6] = biological target: HA H1 A/New Caledonia/20/99 (Influenza A virus (A/New Caledonia/20/1999(H1N1)), UniProt Q6WG00); experiment: biochemical; details: Competition binding (AlphaLISA), pIC50 H1 A/New Caledonia/20/99
[7] = in vitro; details: dog, Cytotoxicity (pCC50) MDCK
[8] = tested on: H1N1 A/California/07/09; experiment: microbe, parasite or virus in culture; type: cell-based, influenza A virus; details: for EC50: Influenza A virus, H1N1, MDCK, 96 h, read-out: Virus neutralization assay (VNA), pEC50 H1N1 A/California/07/09 (converted)
[9] = tested on: MDCK cells; details: dog

| Structure (SMILES) | EC50 [1] | IC50 [2] | EC50 [3] | EC50 [4] | IC50 [5] | IC50 [6] | CC50 [7] | EC50 [8] | Cytotoxicity (pCC50) MDCK [9] | Virus neutralization assay (VNA), pEC50 H5N1 A/Vietnam/1203/04 [1] | Virus neutralization assay (VNA), pEC50 H1N1 A/New Caledonia/20/99 [3] | Virus neutralization assay (VNA), pEC50 H1N1 A/California/07/09 [8] |
| --- | --- | --- | --- | --- | --- | --- | --- | --- | --- | --- | --- | --- |
| COC(=O)[C@@H](c1ccccc1)N1CCN(C(=O)c2cccc(-c3nc4ccc(OC)cc4s3)c2)CC1 [Example 19] | 1.58 µM | 20 nM | 100 nM | 126 nM | 200 nM | 15.8 nM | > 50.1 µM | 251 nM |  |  |  |  |
| Cc1nnc([C@@H](c2ccccc2)N2CCN(C(=O)c3cccc(-c4nc5cc(C(F)(F)F)ccc5o4)c3)CC2)o1 [Example 27] | 39.8 µM | 31.6 nM | 316 nM |  | 1260 nM | 50.1 nM |  | 316 nM | <4.3 |  |  |  |
| COC(=O)C(c1ccccc1)N1CCN(C(=O)c2cccc(-c3nc4ccc(OC)cc4s3)c2)CC1 (stereo not shown) [Example 29] | 3.98 µM | 25.1 nM | 158 nM | 126 nM | 251 nM | 15.8 nM | 39.8 µM | 251 nM |  |  |  |  |
| COC(=O)[C@@H](c1ccccc1)C1CCN(C(=O)c2cccc(-c3nc4ccc(OC)cc4s3)c2)CC1 [Example 65] | 25.1 µM | 100 nM | 501 nM | 631 nM | 631 nM | 50.1 nM | 39.8 µM | 1000 nM |  |  |  |  |
| Cc1nnc([C@@H](c2ccccc2)N2CCN(C(=O)c3cccc(-c4nc5cc(C(F)(F)F)ccc5o4)c3)CC2)o1 [Example 69] |  | 63.1 nM |  |  | 2510 nM | 79.4 nM |  |  | 5.0 | 4.5 | 6.2 | 6.4 |
| COC(=O)C(c1ccccc1)N1CCN(C(=O)c2cccc(-c3ccc(OC)cc3)c2)CC1 (stereo not shown) [Example 83] |  | 398 nM |  | 1000 nM | 2510 nM | 200 nM | 39.8 µM |  |  | 4.8 | 6.2 | 5.7 |
| O=C(c1cccc(-c2cc3ccccc3o2)c1)N1CCN(Cc2ccccc2)CC1 [Example 85] | 12.6 µM | 631 nM | 631 nM | 501 nM | 3160 nM | 316 nM | 10 µM | 2510 nM |  |  |  |  |
| COC(=O)C(c1ccccc1)C1CCN(C(=O)c2cccc(-c3nc4ccc(OC)cc4s3)c2)CC1 (stereo not shown) [Example 105] | 12.6 µM | 126 nM | 1000 nM | 2000 nM | 2000 nM | 100 nM | > 50.1 µM | 3160 nM |  |  |  |  |
| COc1ccc2nc(-c3cccc(C(=O)N4CCN(C(C(C)=O)c5ccccc5)CC4)c3)sc2c1 (stereo not shown) [Example 106] | > 50.1 µM | 398 nM | 1000 nM |  | 2000 nM | 200 nM |  | 3160 nM | 4.4 |  |  |  |
| CCOC(=O)[C@@H](c1ccccc1)N1CCN(C(=O)c2cccc(-c3ccc(OC)cc3)c2)CC1 [Example 114] | 31.6 µM | 100 nM | 1260 nM | 2510 nM | 398 nM | 126 nM | 3.98 µM | 2000 nM |  |  |  |  |
| CCOC(=O)C(c1ccccc1)N1CCN(C(=O)c2cccc(-c3ccc(OC)cc3)c2)CC1 (stereo not shown) [Example 120] | > 50.1 µM | 251 nM | 1580 nM | 1000 nM | 2510 nM | 251 nM | > 50.1 µM | 1260 nM |  |  |  |  |
| COC(=O)C(c1ccccc1)C1CCN(C(=O)c2cccc(-c3nc4ccc(OC)cc4[nH]3)c2)CC1 (stereo not shown) [Example 123] | 50.1 µM | 631 nM | 1580 nM | 2510 nM | 12600 nM | 501 nM | > 50.1 µM | 5010 nM |  |  |  |  |
| COc1ccc2nc(-c3cccc(C(=O)N4CCN([C@@H](c5ccccc5)c5nnc(C)o5)CC4)c3)sc2c1 [Example 124] | 3.98 µM | 63.1 nM | 2000 nM |  | 631 nM | 79.4 nM | 15.8 µM | 501 nM |  |  |  |  |
| Cc1nnc(C(c2ccccc2)N2CCN(C(=O)c3cccc(-c4nc5cc(Cl)ccc5o4)c3)CC2)o1 (stereo not shown) [Example 125] | 50.1 µM | 158 nM | 2000 nM |  | 12600 nM | 158 nM | 25.1 µM | 1580 nM |  |  |  |  |
| O=C(c1cccc(-c2nc3cc(C(F)(F)F)ccc3o2)c1)N1CCN(C(c2ccccc2)c2nnc(C3CC3)o2)CC1 (stereo not shown) [Example 127] | 20 µM | 79.4 nM | 2000 nM |  | 7940 nM | 251 nM | > 50.1 µM | 2510 nM |  |  |  |  |
| Cc1nnc(C(c2ccccc2)N2CCN(C(=O)c3cccc(-c4nc5cccnc5o4)c3)CC2)o1 (stereo not shown) [Example 129] | > 50.1 µM | 631 nM | 2000 nM |  | 31600 nM | 501 nM | > 50.1 µM | 3980 nM |  |  |  |  |
| COC(=O)C(c1ccccc1)C1CCN(C(=O)c2cccc(-c3ccc(OC)cc3)c2)CC1 (stereo not shown) [Example 130] | 39.8 µM | 1000 nM | 2000 nM | 12600 nM | 10000 nM | 631 nM | 39.8 µM | 15800 nM |  |  |  |  |
| COc1ccc2nc(-c3cccc(C(=O)N4CCN(C5(c6ccccc6)CCN(C)C5=O)CC4)c3)sc2c1 (stereo not shown) [Example 131] | > 50.1 µM | 3160 nM | 2510 nM |  | 39800 nM | 3980 nM | 20 µM | 1580 nM |  |  |  |  |
| COC(=O)C(c1ccccc1)N1CCCN(C(=O)c2cccc(-c3nc4ccc(OC)cc4s3)c2)CC1 (stereo not shown) [Example 132] | > 50.1 µM | 794 nM | 2510 nM |  | 15800 nM | 631 nM | > 50.1 µM | 39800 nM |  |  |  |  |
| Cn1nnc([C@@H](c2ccccc2)N2CCN(C(=O)c3cc(-c4nc5cc(OC(F)(F)F)ccc5o4)ccn3)CC2)n1 [Example 133] | 0.631 µM | 15.8 nM | 25.1 nM |  | 251 nM | 10 nM | > 50.1 µM | 63.1 nM |  |  |  |  |
| Cc1nc([C@@H](c2ccccc2)N2CCN(C(=O)c3cc(-c4nc5cc(OC(F)(F)F)ccc5o4)ccn3)CC2)n[nH]1 [Example 134] | 3.98 µM | 39.8 nM | 251 nM |  | 158 nM | 15.8 nM | > 50.1 µM | 631 nM |  |  |  |  |
